Experimental data reported in PubChem BioAssay (NCI).
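Step 1: Grow cells in 96-well plates. Step 2: Expose to compound for 48 hours at 5 concentrations. Step 3: Interpolate endpoints linearly; if unreached, use highest concentration. Abbreviation: GI50, concentration required for 50% inhibition of growth. TGI marks complete inhibition of growth.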

How the values were obtained:
Experiment in all cases: NCI anticancer screen, dose series, 48 h
SF-295 CNS = tested on: SF-295 CNS
MALME-3M melanoma = tested on: MALME-3M melanoma
K-562 leukemia = tested on: K-562 leukemia
RXF 393 renal = tested on: RXF 393 renal
IGROV1 ovarian = tested on: IGROV1 ovarian
OVCAR-3 ovarian = tested on: OVCAR-3 ovarian
SF-539 CNS = tested on: SF-539 CNS
SF-268 CNS = tested on: SF-268 CNS
DU-145 prostate = tested on: DU-145 prostate
HS 578T breast = tested on: HS 578T breast

OCC[N+]12CCCN1CCC2
TGI (SF-295 CNS): > 100 µM | TGI (MALME-3M melanoma): > 100 µM | TGI (K-562 leukemia): > 100 µM | TGI (RXF 393 renal): > 100 µM | TGI (IGROV1 ovarian): > 100 µM | TGI (OVCAR-3 ovarian): > 100 µM | TGI (SF-539 CNS): > 100 µM | TGI (SF-268 CNS): > 100 µM

O=C(N/C(=C\c1cccc([N+](=O)[O-])c1)c1nc2ccccc2[nH]1)c1ccccc1
TGI (MALME-3M melanoma): > 100 µM | TGI (K-562 leukemia): > 100 µM | TGI (IGROV1 ovarian): > 100 µM | TGI (OVCAR-3 ovarian): > 100 µM | TGI (SF-539 CNS): > 100 µM | TGI (SF-268 CNS): > 100 µM

CC(C)(C)c1cc(CCCCCCCC2(CCCCCCCc3cc(C(C)(C)C)cc(C(C)(C)C)c3)OC(COCCOCCCCCC#N)C(COCCOCCCCCC#N)O2)cc(C(C)(C)C)c1 (stereo not drawn)
TGI (SF-295 CNS): > 100 µM | TGI (MALME-3M melanoma): > 100 µM | TGI (K-562 leukemia): > 100 µM | TGI (RXF 393 renal): > 100 µM | TGI (IGROV1 ovarian): > 100 µM | TGI (OVCAR-3 ovarian): > 100 µM | TGI (SF-268 CNS): > 100 µM

CCOc1cn(C2OC(CO)C(O)C2O)c(=O)[nH]c1=O (stereo not drawn)
TGI (SF-295 CNS): > 100 µM | TGI (MALME-3M melanoma): > 100 µM | TGI (K-562 leukemia): > 100 µM | TGI (RXF 393 renal): > 100 µM | TGI (IGROV1 ovarian): > 100 µM | TGI (OVCAR-3 ovarian): > 100 µM | TGI (SF-268 CNS): > 100 µM

COc1cc(CNCCN2C(=O)c3ccc4c5c(ccc(c35)C2=O)C(=O)N(CCNCc2cc(OC)c(OC)c(OC)c2)C4=O)cc(OC)c1OC
GI50 (SF-295 CNS): 0.494 µM | TGI (SF-295 CNS): 1.3 µM | GI50 (K-562 leukemia): 0.147 µM | TGI (K-562 leukemia): 0.413 µM | GI50 (RXF 393 renal): 0.251 µM | TGI (RXF 393 renal): 0.902 µM | GI50 (IGROV1 ovarian): 0.296 µM | TGI (IGROV1 ovarian): 1.89 µM | GI50 (OVCAR-3 ovarian): 0.174 µM | TGI (OVCAR-3 ovarian): 0.548 µM | GI50 (SF-539 CNS): 0.4 µM | TGI (SF-539 CNS): 1.11 µM | GI50 (SF-268 CNS): 0.786 µM | TGI (SF-268 CNS): 2.37 µM | GI50 (DU-145 prostate): 0.197 µM | TGI (DU-145 prostate): 0.743 µM

NS(=O)(=O)c1ccc(Nc2c3ccccc3nc3c(C(=O)N4CCN(CCO)CC4)cccc23)cc1
TGI (SF-295 CNS): > 100 µM | TGI (MALME-3M melanoma): > 100 µM | TGI (K-562 leukemia): > 100 µM | TGI (RXF 393 renal): > 100 µM | TGI (IGROV1 ovarian): > 100 µM | TGI (OVCAR-3 ovarian): > 100 µM | TGI (SF-539 CNS): > 100 µM | TGI (SF-268 CNS): > 100 µM

COc1ccc(C(=O)c2c3cc(OC)c(OC)c(OC)c3cc[n+]2C)cc1
TGI (MALME-3M melanoma): > 100 µM | TGI (K-562 leukemia): > 100 µM | TGI (RXF 393 renal): > 100 µM | TGI (IGROV1 ovarian): > 100 µM | TGI (SF-268 CNS): > 100 µM

CC(=O)O[C@H]1CCN2C(=O)C=CC(OCc3ccccc3)C12 (stereo partly drawn)
TGI (SF-295 CNS): > 100 µM | TGI (MALME-3M melanoma): > 100 µM | TGI (K-562 leukemia): > 100 µM | TGI (IGROV1 ovarian): > 100 µM | TGI (OVCAR-3 ovarian): > 100 µM | TGI (SF-539 CNS): > 100 µM | TGI (SF-268 CNS): > 100 µM

CC(C)(C)C(=O)Nc1cccc2oc(-c3ccccc3)cc12
TGI (SF-295 CNS): > 100 µM | TGI (K-562 leukemia): > 100 µM | TGI (RXF 393 renal): > 100 µM | TGI (IGROV1 ovarian): > 100 µM | TGI (OVCAR-3 ovarian): > 100 µM | TGI (SF-539 CNS): > 100 µM

Oc1ccc2c3c1OC1c4[nH]ncc4C[C@H]4[C@@H](C2)N(CC2CC2)CC[C@]314 (stereo partly drawn)
TGI (HS 578T breast): > 100 µM | TGI (SF-295 CNS): > 100 µM | TGI (MALME-3M melanoma): > 100 µM | TGI (K-562 leukemia): > 100 µM | TGI (RXF 393 renal): > 100 µM | TGI (IGROV1 ovarian): > 100 µM | TGI (OVCAR-3 ovarian): > 100 µM | TGI (SF-268 CNS): > 100 µM | TGI (DU-145 prostate): > 100 µM

Cc1ccc(/C=C(\NC(=O)c2ccccc2)c2nc3ccccc3[nH]2)cc1
TGI (SF-295 CNS): > 100 µM | TGI (MALME-3M melanoma): > 100 µM | TGI (RXF 393 renal): > 100 µM | TGI (IGROV1 ovarian): > 100 µM | TGI (OVCAR-3 ovarian): > 100 µM | TGI (SF-539 CNS): > 100 µM | TGI (SF-268 CNS): > 100 µM

CSc1nc2nn(Cc3ccccc3)cc2c(=O)[nH]1
TGI (SF-295 CNS): > 100 µM | TGI (MALME-3M melanoma): > 100 µM | TGI (K-562 leukemia): > 100 µM | TGI (RXF 393 renal): > 100 µM | TGI (IGROV1 ovarian): > 100 µM | TGI (OVCAR-3 ovarian): > 100 µM | TGI (SF-539 CNS): > 100 µM | TGI (SF-268 CNS): > 100 µM

CCN(CC)CC(C)C(=O)/C=C/c1ccc(C)cc1 (stereo not drawn)
TGI (SF-295 CNS): 28.6 µM | TGI (MALME-3M melanoma): 7.08 µM | TGI (K-562 leukemia): > 100 µM | TGI (RXF 393 renal): 4.31 µM | TGI (IGROV1 ovarian): 4.86 µM | TGI (OVCAR-3 ovarian): 9.93 µM | TGI (SF-539 CNS): 3.85 µM | TGI (SF-268 CNS): 4.51 µM

NS(=O)(=O)c1ccc(NC(=O)Cc2nc3ccccc3s2)cc1
TGI (SF-295 CNS): 33.2 µM | TGI (MALME-3M melanoma): 30.3 µM | TGI (K-562 leukemia): 59.4 µM | TGI (RXF 393 renal): 32.6 µM | TGI (IGROV1 ovarian): 29.9 µM | TGI (OVCAR-3 ovarian): 30.4 µM | TGI (SF-539 CNS): 32.3 µM | TGI (SF-268 CNS): 30.7 µM

O=C(/C=C/c1ccccc1O)c1ccc([N+](=O)[O-])cc1
TGI (SF-295 CNS): 56.5 µM | TGI (MALME-3M melanoma): > 100 µM | TGI (K-562 leukemia): 71.6 µM | TGI (RXF 393 renal): 24.3 µM | TGI (IGROV1 ovarian): 26.3 µM | TGI (OVCAR-3 ovarian): 25.5 µM | TGI (SF-539 CNS): 29.2 µM | TGI (SF-268 CNS): 66.9 µM

CSc1ccc2c(cc1=O)[C@@H](NC(=O)c1ccc(Cl)cc1)CCc1cc(O)c(O)c(O)c1-2
TGI (SF-295 CNS): > 100 µM | TGI (MALME-3M melanoma): > 100 µM | TGI (K-562 leukemia): 68.3 µM | TGI (RXF 393 renal): > 100 µM | TGI (IGROV1 ovarian): 50.8 µM | TGI (OVCAR-3 ovarian): 56.5 µM | TGI (SF-539 CNS): > 100 µM | TGI (SF-268 CNS): > 100 µM

C[C@@H](NS(=O)(=O)c1ccc(NC(=O)c2ccccc2)cc1)C(=O)O
TGI (SF-295 CNS): > 100 µM | TGI (MALME-3M melanoma): > 100 µM | TGI (K-562 leukemia): > 100 µM | TGI (RXF 393 renal): > 100 µM | TGI (IGROV1 ovarian): > 100 µM | TGI (OVCAR-3 ovarian): > 100 µM | TGI (SF-539 CNS): > 100 µM | TGI (SF-268 CNS): > 100 µM

O=c1c2ccccc2c(/C=N\NC2=NCCN2)c2oc3ccccc3n12
GI50 (SF-295 CNS): 13.5 µM | TGI (SF-295 CNS): 27.8 µM | GI50 (K-562 leukemia): 22.2 µM | TGI (K-562 leukemia): > 100 µM | GI50 (RXF 393 renal): 21.4 µM | TGI (RXF 393 renal): 40.2 µM | GI50 (OVCAR-3 ovarian): 18.6 µM | TGI (OVCAR-3 ovarian): 34.3 µM | GI50 (SF-539 CNS): 18.1 µM | TGI (SF-539 CNS): 36.3 µM | GI50 (SF-268 CNS): 57.8 µM | TGI (SF-268 CNS): > 100 µM | GI50 (DU-145 prostate): 15 µM | TGI (DU-145 prostate): 34.7 µM
